According to patent US20240401058A1, “METHOD OF REGULATING PULMONARY ARTERY VASCULAR REMODELING” (THE TRUSTEES OF INDIANA UNIVERSITY, priority 2021, published 2024):

Assays:
Type in all cases: cell-based, human
Ac-H3K9 = assay: CUT&RUN with acetylated H3K9 antibody in hPASMC; conditions: for EMAP II promoted hyperacetylation of H3K9 (Ac-H3K9 peaks): EMAP II 2-3 hours
Description: Cleavage Under Targets and Release Using Nuclease (CUT&RUN) was performed with hPASMC using CUTANA® protocol v1.6. For each condition, nuclei from two biological replicates were extracted by incubating cells on ice for 10 min in Nuclei Extraction buffer (NE: 20 mM HEPES-KOH, pH 7.9; 10 mM KCl; 0.1% Triton X-100; 20% Glycerol; 0.5 mM spermidine; 1× complete protease inhibitor (GoldBio), collecting by centrifugation (600 g, 3 min, 4° C.), discarding the supernatant, and resuspending at [100 μl/500K nuclei] sample in NE buffer. For each target 500K nuclei were immobilized onto Concanavalin-A beads (EpiCypher #21-1401) and incubated overnight (4° C. with gentle rocking) with 0.5 μg of antibody IgG (negative control), trimethylated H3K4 (positive control), Ac-H3K9 (all validated to SNAP-ChIP nucleosome standards). CUT&RUN enriched DNA was purified and used to prepare sequencing libraries with the Ultra II DNA Library Prep kit (New England Biolabs #E7645S). Libraries were sequenced on the Illumina NextSeq 550, obtaining ˜8 million paired end reads on average. The CUT&RUN paired reads were used for quality control using FASTQ Groomer (Galaxy Version 1.1.5) and paired ends were aligned against the GRCh38/hg38 reference genome assembly for human using bowtie2 (Galaxy Version 2.4.2+galaxy0). After quality-based filtering with SAM or BAM tools (Galaxy Version 1.8+galaxy1), MACS2 (Galaxy Version 2.1.1.20160309.6) was applied for CUT&RUN peak calling of Ac-H3K9 against the IgG control with genome size of 2.7e9 and then, DiffBind (Galaxy Version 2.10.0) was used to analyze the differential binding sites between the control and rEMAP II treated samples.

hPASMC = assay: Cell proliferation rate in hPASMC following EMAP II treatment; conditions: inhibitor pretreatment, EMAP II 24 hours
Description: Cells were treated with EMAP II or vehicle, cells were rinsed at the desired time point, and lysis buffer was applied.

iPAH: PASMCs = assay: Cell proliferation rate of iPAH: PASMCs; conditions: iSPHK2 pretreatment 24 hours
Description: All studies involving human lung tissues and cells were conducted according to the Institutional review board of Indiana University School of Medicine. Deidentified archived tissues and pulmonary arterial smooth muscle cells (PASMCs) obtained from the Pulmonary Hypertension Breakthrough Initiative (PHBI) biorepository from patients with Idiopathic Pulmonary Arterial Hypertension (iPAH: Group 1 PH) at time of lung transplantation and patients without PH that were failed donor lungs (FDL).
Primary human PASMCs (hPASMCs), pulmonary microvascular endothelial cells (hPMVECs) purchased from Lonza (Walkersville, MD) and iPAH: PASMCs were cultured in complete growth medium or conditioned media in a humidified atmosphere or 1% O2 with 5% CO2 at 37° C. For all studies, passages 5-10 were used for hPASMCs and hPMVECs.

nuclear S1P = assay: ELISA for S1P quantification in nuclear fractions of hPASMC; conditions: inhibitor pretreatment, EMAP II 15 or 150 minutes
Description: Equal number of hPASMC cells (15000/[…]) were plated and serum starved for overnight. Cells were pretreated with inhibitors if needed and stimulated for in a series of time points and collected the cells. Cells were pelleted out and washed with PBS. After the extraction of nuclear proteins, protein concentration was measured. S1P levels were measured using S1P ELISA kit (MyBioSource, MBS069092) following manufacturer's instructions. S1P levels were normalized against protein levels.

[1] = tested on: pSPHK2 in nuclear fractions of hPASMC; assay: Nuclear pSPHK2 in hPASMC after EMAP II treatment (immunoblot of nuclear fractions, immunofluorescence); conditions: inhibitor pretreatment, EMAP II 150 minutes
Description: Primary human pulmonary artery smooth muscle cells (hPASMC) purchased from Lonza (Walkersville, MD) were cultured in complete growth medium containing smooth muscle growth media-2 (SmGM-2) with 10% FBS and growth factors provided as a kit by the supplier (Lonza, (Walkersville, MD). Cells were cultured in a humidified atmosphere with 5% CO2 at 37° C. For all studies, passages 5-10 were used for hPASMCs. For treatment studies, subconfluent cells plated in multi-well plates were serum starved and if required, pretreated with inhibitors before stimulation with 2 μg/mL recombinant EMAP II. All the controls were handled similar to the test samples. Cells were treated with EMAP II or vehicle, cells were rinsed at the desired time point, and lysis buffer was applied.
After appropriate treatments, protein lysates were prepared by using RIPA buffer (for cells) or home-made lysis buffer (tissue) supplemented with phosphatase and protease inhibitors (Thermo Fisher Scientific). Alpha-tubulin or Vinculin was used as a loading control. For nuclear and cytoplasmic fractionation, NE-PER kit from Thermo Fischer Scientific was used. Western blots were performed according to standard methods and quantified using densitometry using Image Studio Lite software from LI-COR Biosciences. […]

HDAC = HDAC assay in nuclear fractions of hPASMC; conditions: inhibitor pretreatment, EMAP II 150 minutes
Description: Equal number of hPASMC cells (15000/[…]) were plated and serum starved for overnight. Cells were pretreated with inhibitors and stimulated for the desired time points and collected. Cells were pelleted out and washed with PBS. After the extraction of nuclear proteins, protein concentration was measured. HDAC levels were measured using HDAC activity flurometric kit (Abcam, ab156064) following manufacturer's instructions. Free unbound HDAC levels were normalized against protein levels.

O=C(NCc1ccncc1)C12CC3CC(C1)CC(c1ccc(Cl)cc1)(C3)C2 [SPHK2 inhibitor, ABC294640]
differentially acetylated sites by EMAPII that are altered by iSPHK2 pretreatment (Ac-H3K9): 5554 sites | differentially acetylated upstream sites by EMAPII that are also altered by iSPHK2 pretreatment (Ac-H3K9): 755 sites | EMAP II promoted hyperacetylation of H3K9 (Ac-H3K9 peaks) (Ac-H3K9; inhibitor pretreatment): partially diminished EMAP II promoted hyperacetylation of H3K9 | EMAP II promoted hyperacetylation of H3K9 (Ac-H3K9 peaks) (Ac-H3K9; inhibitor pretreatment, listed as iSPHK2): partially diminished EMAPII promoted hyperacetylation of H3K9 | level of Ac-H3K9 regions in KLF4 (Ac-H3K9; inhibitor pretreatment, EMAPII treated): rescued the level of Ac-H3K9 regions in EMAPII treated cells | EMAP II mediated cell proliferation (hPASMC): blocked EMAPII mediated proliferation | EMAP II mediated cell proliferation (hPASMC; listed as iSPHK2): rescued | proliferation rate (iPAH: PASMCs): restoring regular proliferation rates in iPAH: PASMCs | EMAP II generated nuclear S1P (nuclear S1P): suppressed EMAP II generated nuclear S1P expression | EMAP II generated nuclear S1P (nuclear S1P; listed as iSPHK2): suppressed EMAPII generated nuclear S1P expression | EMAP II induced nuclear activation of SPHK2 (nuclear pSPHK2/lamin B) [1]: ablated the EMAP II induced nuclear activation of SPHK2 | EMAP II induced nuclear activation of SPHK2 (nuclear pSPHK2/lamin B) ([1]; listed as iSPHK2): ablated the EMAPII induced nuclear activation of SPHK2 | HDAC activity (HDAC): rescued decreased HDAC activity | HDAC activity (HDAC; listed as iSPHK2): rescued the loss of HDAC activity | HDAC activity (HDAC; listed as iSPHK2 inhibitor): rescued the loss of HDAC activity

Cc1cc(CS(=O)(=O)c2ccccc2)cc(OCc2ccc(CN3CCCC3CO)cc2)c1 (stereo not shown) [SPHK1 inhibitor, PF643]
EMAP II mediated cell proliferation (hPASMC): blocked EMAPII mediated proliferation
